Reference: paper PMC8343220, “The selectivity of α‐adrenoceptor agonists for the human α1A, α1B, and α1D‐adrenoceptors” (Pharmacology Research & Perspectives, 2021)

What was measured:
[1] = molecular target: T1, human α1D‐adrenoceptor (full length) (Homo sapiens, UniProt P25100); test: ERK1/2‐phosphorylation (Surefire Alphascreen), CHO‐α1D cells; format: cell-based
T1 construct: human α1D‐adrenoceptor (full length) were used; expressed in transfected cells; host or cells: CHO-K1
T1 sequence (P25100 1-572): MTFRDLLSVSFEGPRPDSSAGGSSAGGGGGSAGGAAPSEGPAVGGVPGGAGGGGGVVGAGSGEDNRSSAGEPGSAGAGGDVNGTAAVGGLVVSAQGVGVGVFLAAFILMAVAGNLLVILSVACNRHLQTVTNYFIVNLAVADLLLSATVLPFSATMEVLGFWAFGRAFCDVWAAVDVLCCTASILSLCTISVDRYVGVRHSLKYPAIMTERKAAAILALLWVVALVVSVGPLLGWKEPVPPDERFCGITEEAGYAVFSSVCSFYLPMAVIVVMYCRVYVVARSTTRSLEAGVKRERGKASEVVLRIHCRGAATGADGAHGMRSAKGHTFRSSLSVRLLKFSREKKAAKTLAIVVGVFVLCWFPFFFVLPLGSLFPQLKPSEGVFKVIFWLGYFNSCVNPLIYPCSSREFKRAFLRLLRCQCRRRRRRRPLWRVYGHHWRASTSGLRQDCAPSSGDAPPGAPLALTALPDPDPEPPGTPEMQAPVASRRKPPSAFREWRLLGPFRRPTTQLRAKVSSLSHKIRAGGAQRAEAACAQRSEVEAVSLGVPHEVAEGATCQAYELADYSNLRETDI

human α1A‐adrenoceptor [2] = molecular target: T2, human α1A‐adrenoceptor (Homo sapiens, UniProt P35348); test: ^3H‐cAMP accumulation in the presence of 10 μM forskolin, CHO‐α1A cells; format: cell-based; conditions: CHO‐α1A cells
T2 construct: expressed in transfected cells; host or cells: CHO-K1
T2 sequence (P35348 1-466): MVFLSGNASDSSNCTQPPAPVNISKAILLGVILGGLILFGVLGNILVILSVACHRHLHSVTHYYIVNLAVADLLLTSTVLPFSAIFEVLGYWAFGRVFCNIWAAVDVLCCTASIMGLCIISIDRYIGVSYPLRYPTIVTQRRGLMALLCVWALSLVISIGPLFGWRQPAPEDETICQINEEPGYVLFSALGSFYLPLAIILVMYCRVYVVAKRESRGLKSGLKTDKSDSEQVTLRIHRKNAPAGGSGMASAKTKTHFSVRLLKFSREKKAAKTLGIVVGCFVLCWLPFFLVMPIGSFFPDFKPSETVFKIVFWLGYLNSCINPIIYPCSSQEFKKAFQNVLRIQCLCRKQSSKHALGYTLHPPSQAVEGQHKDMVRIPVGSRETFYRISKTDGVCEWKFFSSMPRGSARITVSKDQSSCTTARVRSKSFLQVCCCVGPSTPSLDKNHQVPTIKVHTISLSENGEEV

human α1A‐adrenoceptor [3] = molecular target: T2, human α1A‐adrenoceptor; test: Intracellular free calcium mobilization, CHO‐α1A cells; format: cell-based
[4] = molecular target: T1, human α1D‐adrenoceptor (full length); test: Intracellular free calcium mobilization, CHO‐α1D cells; format: cell-based
[5] = test system: parental CHO cell line without any transfected receptors; test: ^3H‐cAMP accumulation, parent CHO cells without transfected receptors; format: cell-based, Chinese hamster
human α1B‐adrenoceptor [6] = molecular target: T3, human α1B‐adrenoceptor (Homo sapiens, UniProt P35368); test: ERK1/2‐phosphorylation (Surefire Alphascreen), CHO‐α1B cells; format: cell-based
T3 construct: expressed in transfected cells; host or cells: CHO-K1
T3 sequence (P35368 1-520): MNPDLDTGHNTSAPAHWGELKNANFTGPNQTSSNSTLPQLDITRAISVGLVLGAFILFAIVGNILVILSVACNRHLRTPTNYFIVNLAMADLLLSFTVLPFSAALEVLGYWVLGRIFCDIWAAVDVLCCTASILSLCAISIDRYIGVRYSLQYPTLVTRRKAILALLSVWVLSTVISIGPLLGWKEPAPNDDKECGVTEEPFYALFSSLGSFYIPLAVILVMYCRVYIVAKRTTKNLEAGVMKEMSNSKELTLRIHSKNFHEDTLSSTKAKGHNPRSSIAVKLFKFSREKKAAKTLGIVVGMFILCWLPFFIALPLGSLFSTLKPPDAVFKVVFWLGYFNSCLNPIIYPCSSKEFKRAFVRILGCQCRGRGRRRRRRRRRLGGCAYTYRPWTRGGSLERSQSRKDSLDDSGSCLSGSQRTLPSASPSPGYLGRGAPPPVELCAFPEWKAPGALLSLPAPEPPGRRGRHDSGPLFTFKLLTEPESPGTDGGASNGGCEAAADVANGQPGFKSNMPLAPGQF

human α1A‐adrenoceptor [7] = molecular target: T2, human α1A‐adrenoceptor; test: ERK1/2‐phosphorylation (Surefire Alphascreen), CHO‐α1A cells; format: cell-based
[8] = test system: parental CHO cell line without any transfected receptors; test: ERK1/2‐phosphorylation, parent CHO cells without transfected receptors; format: cell-based, Chinese hamster
[9] = test system: parental CHO cell line without any transfected receptors; test: Forskolin‐stimulated cAMP accumulation, parent CHO cells without transfected receptors; format: cell-based, Chinese hamster
human α1B‐adrenoceptor [10] = molecular target: T3, human α1B‐adrenoceptor; test: Intracellular free calcium mobilization, CHO‐α1B cells; format: cell-based
human α1A‐adrenoceptor [11] = molecular target: T2, human α1A‐adrenoceptor; test: ^3H‐cAMP accumulation, CHO‐α1A cells; format: cell-based; conditions: CHO‐α1A cells
[12] = test system: parental CHO cell line without any transfected receptors; test: Intracellular calcium mobilization, parent CHO cells without transfected receptors; format: cell-based, Chinese hamster

CCC1(c2cnc[nH]2)Cc2ccccc2C1 [Atipamezole]
ERK1/2‐phosphorylation % PDBu at 10 µM [1]: 5.3 ± 4.6%
EC50 (human α1A‐adrenoceptor [2]; 10 μM forskolin, read-out: cAMP accumulation (in presence of forskolin) Log EC50 (converted)): 0.479 µM
cAMP accumulation (in presence of forskolin) Fold increase (human α1A‐adrenoceptor [2]; fold increase of the forskolin response): 2.00 ± 0.10 fold
Intracellular calcium release % ionomycin (human α1A‐adrenoceptor [3]): 44.5 ± 2.6%
Log efficacy ratio KD /EC50 (human α1A‐adrenoceptor [3]): 0.62
EC50 (human α1A‐adrenoceptor [3]; CHO‐α1A cells, given as log EC50 (negative), read-out: Intracellular calcium release Log EC50 (converted)): 0.245 µM
Intracellular calcium release % ionomycin [4]: No response
Intracellular calcium release Log EC50 ([4]; CHO‐α1D cells, log values given negative): No response
cAMP accumulation % forskolin [5]: No response
ERK1/2‐phosphorylation % PDBu (human α1B‐adrenoceptor [6]): No response
ERK1/2‐phosphorylation Log EC50 (human α1B‐adrenoceptor [6]; CHO‐α1B cells, for bi‐phasic responses the initial stimulatory part): No response
ERK1/2‐phosphorylation % PDBu (human α1A‐adrenoceptor [7]): 87.1 ± 5.0%
EC50 (human α1A‐adrenoceptor [7]; CHO‐α1A cells, 2–4 min, ^a bi‐phasic: initial stimulatory part, ^b also active in parent CHO cells, read-out: ERK1/2‐phosphorylation Log EC50 (converted)): 0.1 µM
ERK1/2-phosphorylation % PDBu at 10μM [8]: 3.1 ± 1.9%
cAMP accumulation (in presence of forskolin) % forskolin-stim cAMP [9]: No response
cAMP accumulation (in presence of forskolin) Log EC50 [9]: No response
Intracellular calcium release % Ionomycin at 100 µM (human α1B‐adrenoceptor [10]): 18.1 ± 4.8%
EC50 (human α1A‐adrenoceptor [11]; 5 h, read-out: cAMP accumulation Log EC50 (converted)): 1.17 µM
cAMP accumulation % forskolin (human α1A‐adrenoceptor [11]; % of 10 µM forskolin response): 14.5 ± 2.6%
Intracellular calcium release % ionomycin [12]: No response

CC(N)C(O)c1ccc(O)c(O)c1 (stereo not drawn) [α-methylnorepinephrine]
cAMP accumulation % forskolin [5]: No response
ERK1/2-phosphorylation % PDBu [8]: No response
ERK1/2-phosphorylation Log EC50 [8]: No response
cAMP accumulation (in presence of forskolin) % forskolin-stim cAMP [9]: No response
cAMP accumulation (in presence of forskolin) Log EC50 [9]: No response
Intracellular calcium release % ionomycin [12]: No response

COc1ccccc1N1CCN(CC2CN3C(=O)N(C)c4ccccc4C3=N2)CC1 (stereo not shown) [2-MPMDQ]
cAMP accumulation % forskolin [5]: No response
ERK1/2-phosphorylation % PDBu [8]: No response
cAMP accumulation (in presence of forskolin) % forskolin-stim cAMP [9]: No response
cAMP accumulation (in presence of forskolin) Log EC50 [9]: No response
Intracellular calcium release % ionomycin [12]: No response
